This note sets out measurements from patent US7642269B2, “Pyrrolo[3,2-B]pyridine derivatives and processes for the preparation thereof” (Yuhan Corporation, priority 2005, dated 2010).

SMILES strings stand for the structures. Where a name gives a salt, the structure may show the parent alone.

The target of the assay is T1, H^+/K^+-ATPase (Sus scrofa, UniProt P19156).
T1 construct: used as an enzyme source of the in vitro enzyme reaction assay of proton pump; from tissue; host or cells: hog gastric fundic mucosa (membrane vesicles, lyophilized)
T1 sequence (P19156 2-1034 limits assumed): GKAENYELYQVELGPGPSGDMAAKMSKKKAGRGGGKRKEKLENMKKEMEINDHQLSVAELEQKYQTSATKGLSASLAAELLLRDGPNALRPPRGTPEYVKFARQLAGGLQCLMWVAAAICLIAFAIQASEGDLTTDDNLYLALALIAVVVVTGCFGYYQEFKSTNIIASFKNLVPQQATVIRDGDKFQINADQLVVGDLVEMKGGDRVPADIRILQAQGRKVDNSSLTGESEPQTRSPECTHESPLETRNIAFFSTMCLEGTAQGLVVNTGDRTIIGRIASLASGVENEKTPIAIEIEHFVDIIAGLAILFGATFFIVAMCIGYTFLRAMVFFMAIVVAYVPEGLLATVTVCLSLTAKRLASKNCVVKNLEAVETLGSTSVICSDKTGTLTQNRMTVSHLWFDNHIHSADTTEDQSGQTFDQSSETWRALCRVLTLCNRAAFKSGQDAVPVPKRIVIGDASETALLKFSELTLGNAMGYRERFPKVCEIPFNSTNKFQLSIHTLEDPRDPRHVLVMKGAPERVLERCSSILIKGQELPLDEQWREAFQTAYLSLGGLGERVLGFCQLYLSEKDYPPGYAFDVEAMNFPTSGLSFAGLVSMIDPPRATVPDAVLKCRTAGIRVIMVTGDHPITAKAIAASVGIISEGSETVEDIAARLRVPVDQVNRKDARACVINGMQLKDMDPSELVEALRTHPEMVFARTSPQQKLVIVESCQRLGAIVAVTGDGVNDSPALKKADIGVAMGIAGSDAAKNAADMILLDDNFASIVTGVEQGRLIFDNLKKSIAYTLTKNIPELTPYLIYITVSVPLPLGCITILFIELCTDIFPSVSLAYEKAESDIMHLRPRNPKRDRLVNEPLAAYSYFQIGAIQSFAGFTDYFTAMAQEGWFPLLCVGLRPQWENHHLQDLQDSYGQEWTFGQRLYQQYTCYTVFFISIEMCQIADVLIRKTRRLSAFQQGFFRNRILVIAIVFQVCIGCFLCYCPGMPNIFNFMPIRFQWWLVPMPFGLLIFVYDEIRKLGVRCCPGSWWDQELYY
T1 sequence (P18434 whole entry partner): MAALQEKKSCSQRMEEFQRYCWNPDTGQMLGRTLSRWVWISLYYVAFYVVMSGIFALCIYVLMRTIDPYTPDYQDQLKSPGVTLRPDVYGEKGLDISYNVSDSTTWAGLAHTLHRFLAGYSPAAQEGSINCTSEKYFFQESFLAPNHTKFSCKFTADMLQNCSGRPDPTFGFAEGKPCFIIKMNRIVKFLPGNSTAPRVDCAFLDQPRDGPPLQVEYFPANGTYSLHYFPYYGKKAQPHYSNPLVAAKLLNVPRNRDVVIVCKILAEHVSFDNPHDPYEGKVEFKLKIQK
Briefly: Inhibitory effects on proton pump (H^+/K^+-ATPase) activity, hog gastric vesicles. It counts as biochemical. The conditions noted are these: K^+ stimulated H^+/K^+-ATPase activity, hog gastric vesicle, Pi measured at 620 nm. As to the method: Preparation of Gastric Proton Pump Vesicles
The hog fundic regions containing parietal and peptic cells were scraped with slide-glass. The collected cells were suspended in 10 ml of 0.25M sucrose buffer and homogenized using a tight-fitting Teflon-glass homogenizer. The homogenate was centrifuged for 35 min at 8,000 rpm and the pellet was discarded. The supernatant was further centrifuged for 75 min at 25,000 rpm. The resulting pellets were re-suspended in the sucrose buffer (10 ml), and then the suspension was laid onto discontinuous density gradients consisting of 0.25M sucrose buffer and isolation medium containing 9% Ficoll (w/w). After being centrifuged for 3 hours and 15 minutes at 100,000×g, the material at the interface of sucrose buffer and Ficoll solution was collected and then centrifuged for 40 minutes at 100,000×g. The resulting pellets were re-suspended in 1 ml of 5 mM Hepes/Tris buffer (pH 6.1). This material was lyophilized and stored at −70° C. and used as an enzyme source of the in vitro enzyme reaction assay of proton pump.
1-2. Measurement of Inhibitory Effects on Proton Pump (H+/K+-ATPase) activity
The inhibitory effects of the compounds of the present invention against proton pump activity were evaluated in 96-well plate. In this assay, the K^+ specific H^+/K^+-ATPase activity was calculated based on the difference between the activity of H^+/K^+-ATPase activity with K^+ and without K^+ ion. In 96-well plate, 1% dimethylsulfoxide (DMSO) in buffer was added to negative and positive control groups and the diluted compounds of the present invention in buffer were added to test group. All assays were performed in 100 μl reaction volume at room temperature, and the hog gastric vesicle was kept in ice before use. At the beginning of the reaction, 10 μl of reaction buffer containing 1% DMSO was added to the negative and positive control groups and to each concentration of compounds in the test group. Then lyophilized vesicle in 5 mM Pipes/Tris buffer (pH 6.1) was pre-incubated in the presence of various concentrations of test compounds. After a 5 minute incubation, negative and positive buffers were respectively added to the previous reaction mixture. As the substrate, ATP was added to the reaction buffer, and incubated for 30 minutes at 37° C. Enzymatic activity was stopped by the addition of colorimetric reagent (2× malachite green, 1× ammonium molybdate, 1× polyvinyl alcohol, 2× H2O) and the amount of mono phosphate (Pi) in the reaction was measured at 620 nm using the micro plate reader (Genios Pro, TECAN). The difference between the Pi production with K^+ and without K^+ is taken as K^+ stimulated H^+/K^+-ATPase activity.
As a reminder, the IC50 is the concentration at which inhibition is half-maximal. A high value points to weaker potency. Take `COCCn1c(C)c(C)c2nccc(OCc3ccc(F)cc3)c21` [Example 130, 7-(4-fluorobenzyloxy)-1-(2-methoxyethyl)-2,3-dimethyl-1H-pyrrolo[3,2-b]pyridine malonate]: the IC50 worked out at 40 nM.

The molecule `COCCn1c(C)c(C)c2nccc(OCc3ccc(F)cc3)c21` [Example 131, 7-(4-fluorobenzyloxy)-1-(2-methoxyethyl)-2,3-dimethyl-1H-pyrrolo[3,2-b]pyridine camphosulfonate] yielded an IC50 of 60 nM. The molecule `COCCn1c(C)c(C)c2nccc(OCc3ccc(F)cc3)c21` [Example 132, 7-(4-fluorobenzyloxy)-1-(2-methoxyethyl)-2,3-dimethyl-1H-pyrrolo[3,2-b]pyridine oxalate] came in with an IC50 of 50 nM. The same measure for `COCCn1c(C)c(C)c2nccc(OCc3ccc(F)cc3)c21` [Example 133, 7-(4-fluorobenzyloxy)-1-(2-methoxyethyl)-2,3-dimethyl-1H-pyrrolo[3,2-b]pyridine hydrobromide]: 60 nM.

As to `COCn1c(C)c(C)c2nccc(OCc3ccc(Cl)cc3Cl)c21` [Example 134, 7-(2,4-dichlorobenzyloxy)-1-methoxymethyl-2,3-dimethyl-1H-pyrrolo[3,2-b]pyridine hydrochloride], half-maximal inhibition (IC50) was put at 540 nM. For `CC(C)=CCn1c(C)c(C)c2nccc(OCc3ccc(Cl)cc3Cl)c21` [Example 135, 7-(2,4-dichlorobenzyloxy)-2,3-dimethyl-1-(3-methylbut-2-enyl)-1H-pyrrolo[3,2-b]pyridine hydrochloride], half-maximal inhibition (IC50) required 150 nM. In turn, `Cc1c(C)n(Cc2ccccc2)c2c(OCc3ccc(Cl)cc3Cl)ccnc12` [Example 136, 1-benzyl-7-(2,4-dichlorobenzyloxy)-2,3-dimethyl-1H-pyrrolo[3,2-b]pyridine hydrochloride] registered an IC50 of 50 nM. This IC50 is about 3-fold lower than that of the molecule before. As to `CCn1c(C)c(C)c2nccc(OCc3ccc(Cl)cc3Cl)c21` [Example 137, 7-(2,4-dichlorobenzyloxy)-1-ethyl-2,3-dimethyl-1H-pyrrolo[3,2-b]pyridine hydrochloride], the IC50 came out at 60 nM.

On to `COC(=O)Cn1c(C)c(C)c2nccc(OCc3ccc(Cl)cc3Cl)c21` [Example 138, 7-(2,4-dichlorobenzyloxy)-1-methoxycarbonylmethyl-2,3-dimethyl-1H-pyrrolo[3,2-b]pyridine hydrochloride], for which half-maximal inhibition (IC50) was put at 460 nM. This IC50 lies about 7.7-fold higher than the previous one.

Take `Cc1c(C)n(Cc2ccc(F)cc2)c2c(OCc3ccc(Cl)cc3Cl)ccnc12` [Example 140, 7-(2,4-dichlorobenzyloxy)-1-(4-fluorobenzyl)-2,3-dimethyl-1H-pyrrolo[3,2-b]pyridine hydrochloride]: half-maximal inhibition (IC50) was put at 80 nM.

`COc1cccc(Cn2c(C)c(C)c3nccc(OCc4ccc(Cl)cc4Cl)c32)c1` [Example 141, 7-(2,4-dichlorobenzyloxy)-1-(3-methoxybenzyl)-2,3-dimethyl-1H-pyrrolo[3,2-b]pyridine hydrochloride] came in with an IC50 of 90 nM. The IC50 values of the last two molecules are within 1.5-fold of each other.

Turning to `Cc1cccc(COc2ccnc3c(C)c(C)n(Cc4ccccc4)c23)c1` [Example 144, 1-benzyl-2,3-dimethyl-7-(3-methylbenzyloxy)-1H-pyrrolo[3,2-b]pyridine hydrochloride], the concentration for half-maximal inhibition (IC50) was found to be 240 nM. Consider `CCn1c(C)c(C)c2nccc(OCc3cccc(C)c3)c21` [Example 145, 1-ethyl-2,3-dimethyl-7-(3-methylbenzyloxy)-1H-pyrrolo[3,2-b]pyridine hydrochloride], for which inhibition was half-maximal at 530 nM (IC50). In turn, `Cc1cccc(COc2ccnc3c(C)c(C)n(Cc4cccc(F)c4)c23)c1` [Example 146, 1-(3-fluorobenzyl)-2,3-dimethyl-7-(3-methylbenzyloxy)-1H-pyrrolo[3,2-b]pyridine hydrochloride] came in with a half-inhibitory concentration (IC50) of 3150 nM. For the molecule `Cc1cccc(COc2ccnc3c(C)c(C)n(Cc4ccc(Cl)cc4)c23)c1` [Example 147, 1-(4-chlorobenzyl)-2,3-dimethyl-7-(3-methylbenzyloxy)-1H-pyrrolo[3,2-b]pyridine hydrochloride], half-maximal inhibition (IC50) was put at 3450 nM.

With `CCCn1c(C)c(C)c2nccc(OCc3cccc(C)c3)c21` [Example 153, 2,3-dimethyl-7-(3-methylbenzyloxy)-1-propyl-1H-pyrrolo[3,2-b]pyridine hydrochloride], the IC50 amounted to 1030 nM. The same measure for `Cc1cccc(COc2ccnc3c(C)c(C)n(CC4CC4)c23)c1` [Example 154, 1-cyclopropylmethyl-2,3-dimethyl-7-(3-methylbenzyloxy)-1H-pyrrolo[3,2-b]pyridine hydrochloride]: 240 nM.

`C=CCn1c(C)c(C)c2nccc(OCc3cccc(C)c3)c21` [Example 155, 1-allyl-2,3-dimethyl-7-(3-methylbenzyloxy)-1H-pyrrolo[3,2-b]pyridine hydrochloride]: it took 570 nM to reach half-maximal inhibition (IC50). The same measure for `Cc1ccc(Cn2c(C)c(C)c3nccc(OCc4cccc(C)c4)c32)cc1` [Example 156, 2,3-dimethyl-1-(4-methylbenzyl)-7-(3-methylbenzyloxy)-1H-pyrrolo[3,2-b]pyridine hydrochloride]: 610 nM.

As to `COCCn1c(C)c(C)c2nccc(OCc3cccc(C)c3)c21` [Example 157, 1-(2-methoxyethyl)-2,3-dimethyl-7-(3-methylbenzyloxy)-1H-pyrrolo[3,2-b]pyridine hydrochloride], the IC50 came to 570 nM.

As for `Cc1cccc(COc2ccnc3c(C)c(C)n(Cc4ccc(F)cc4)c23)c1` [Example 158, 1-(4-fluorobenzyl)-2,3-dimethyl-7-(3-methylbenzyloxy)-1H-pyrrolo[3,2-b]pyridine hydrochloride], the IC50 was found to be 320 nM.

Regarding `COc1cccc(Cn2c(C)c(C)c3nccc(OCc4cccc(C)c4)c32)c1` [Example 159, 1-(3-methoxybenzyl)-2,3-dimethyl-7-(3-methylbenzyloxy)-1H-pyrrolo[3,2-b]pyridine hydrochloride], the IC50 amounted to 880 nM. The molecule `CCOc1ccccc1COc1ccnc2c(C)c(C)n(CC3CC3)c12` [Example 161, 1-cyclopropylmethyl-7-(2-ethoxybenzyloxy)-2,3-dimethyl-1H-pyrrolo[3,2-b]pyridine hydrochloride] returned an IC50 of 580 nM. The same measure for `CCOc1ccccc1COc1ccnc2c(C)c(C)n(CCOC)c12` [Example 162, 7-(2-ethoxybenzyloxy)-1-(2-methoxyethyl)-2,3-dimethyl-1H-pyrrolo[3,2-b]pyridine hydrochloride]: 1150 nM; for `CCOc1ccccc1COc1ccnc2c(C)c(C)n(CC3CCC3)c12` [Example 163, 1-cyclobutylmethyl-7-(2-ethoxybenzyloxy)-2,3-dimethyl-1H-pyrrolo[3,2-b]pyridine hydrochloride]: 1010 nM.

Regarding `C=CCn1c(C)c(C)c2nccc(OCc3ccccc3OCC)c21` [Example 164, 1-allyl-7-(2-ethoxybenzyloxy)-2,3-dimethyl-1H-pyrrolo[3,2-b]pyridine hydrochloride], the IC50 was determined as 3000 nM. The molecule `CCOc1ccccc1COc1ccnc2c(C)c(C)n(Cc3cccc(OC)c3)c12` [Example 177, 7-(2-ethoxybenzyloxy)-1-(3-methoxybenzyl)-2,3-dimethyl-1H-pyrrolo[3,2-b]pyridine hydrochloride] yielded a concentration for half-maximal inhibition (IC50) of 290 nM. Turning to `CCOc1ccccc1COc1ccnc2c(C)c(C)n(Cc3cccc(F)c3)c12` [Example 178, 1-(3-fluorobenzyl)-7-(2-ethoxybenzyloxy)-2,3-dimethyl-1H-pyrrolo[3,2-b]pyridine hydrochloride], half-maximal inhibition (IC50) was put at 840 nM. Compared with the last molecule, the IC50 is about 2.9-fold higher.

For `Cc1c(C)n(CC2CCC2)c2c(OCc3cc(F)cc(F)c3)ccnc12` [Example 179, 1-cyclobutylmethyl-7-(3,5-difluorobenzyloxy)-2,3-dimethyl-1H-pyrrolo[3,2-b]pyridine hydrochloride], the IC50 was determined as 570 nM.

As for `Cc1c(C)n(CC2CC2)c2c(OCc3cc(F)cc(F)c3)ccnc12` [Example 180, 1-cyclopropylmethyl-7-(3,5-difluorobenzyloxy)-2,3-dimethyl-1H-pyrrolo[3,2-b]pyridine hydrochloride], the IC50 was 830 nM. To `COCCn1c(C)c(C)c2nccc(OCc3cc(F)cc(F)c3)c21` [Example 181, 7-(3,5-difluorobenzyloxy)-1-(2-methoxyethyl)-2,3-dimethyl-1H-pyrrolo[3,2-b]pyridine hydrochloride] belongs 4710 nM; to `CCCn1c(C)c(C)c2nccc(OCc3cc(F)cc(F)c3)c21` [Example 182, 7-(3,5-difluorobenzyloxy)-2,3-dimethyl-1-propyl-1H-pyrrolo[3,2-b]pyridine hydrochloride], 3880 nM.
